Entries after “also recorded” stand apart in the source; their conditions may differ. Read-outs that look alike come from different tables or passages of the source.
Legend:
[1] = system: patients with post-lung transplant BOS; conditions: patients with an FEV1 response vs those without; cited from earlier work
[2] = system: post-lung transplant BOS; conditions: prophylactic, compared to placebo; cited from earlier work
[3] = molecular target: human JAK1 (Homo sapiens, UniProt P23458); test: In vitro JAK kinase assay (Example A), JAK1; assay type: biochemical; conditions: 1 mM ATP
Excerpt: In some embodiments, the JAK1 pathway inhibitor is a compound of Table 2, or a pharmaceutically acceptable salt thereof.

[4] = molecular target: human JAK2 (Homo sapiens (Human), UniProt O60674); test: In vitro JAK kinase assay (Example A), JAK2; assay type: biochemical; conditions: JAK2/JAK1 IC50 ratio, 1 mM ATP
Procedure: The compounds in Table 2 were tested in this assay and shown to have the IC50 values in Table 2.

[5] = system: alloreactive mouse model (GVHD); conditions: prophylactic and therapeutic dosing, 60 mg/kg per day or 120 mg/kg per day; cited from earlier work
[6] = system: patients with aGVHD; conditions: human, in vivo, cited from earlier work
[7] = system: patients with cGVHD; conditions: human, in vivo; cited from earlier work
[8] = system: patients with lung cGVHD; conditions: response defined by an increase in FEV1 of ≥10%; cited from earlier work
[9] = system: pediatric patients with lung cGVHD; conditions: cited from earlier work
[10] = system: patients with post-lung transplant BOS; conditions: switching from cyclosporine to tacrolimus; cited from earlier work

Sequence of human JAK2 (O60674 828-1132): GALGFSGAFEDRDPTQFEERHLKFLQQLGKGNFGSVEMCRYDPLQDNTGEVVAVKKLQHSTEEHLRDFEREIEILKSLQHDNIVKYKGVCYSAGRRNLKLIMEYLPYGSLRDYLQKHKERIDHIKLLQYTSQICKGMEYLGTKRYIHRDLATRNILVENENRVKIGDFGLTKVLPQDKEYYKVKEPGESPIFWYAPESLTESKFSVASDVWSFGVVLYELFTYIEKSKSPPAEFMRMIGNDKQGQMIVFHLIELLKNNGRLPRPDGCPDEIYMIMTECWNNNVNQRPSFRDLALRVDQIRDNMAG

CC[C@H]1OC(=O)[C@H](C)[C@@H](O[C@H]2C[C@@](C)(OC)[C@@H](O)[C@H](C)O2)[C@H](C)[C@@H](O[C@@H]2O[C@H](C)C[C@H](N(C)C)[C@H]2O)[C@](C)(O)C[C@@H](C)CN(C)[C@H](C)[C@@H](O)[C@]1(C)O [Azithromycin]
overall survival [1]: overall survival advantage | cases of BOS [2]: fewer cases of BOS | overall survival [2]: overall survival was not affected

N#CCC1(n2cc(-c3ncnc4[nH]ccc34)cn2)CN(C2CCN(C(=O)c3ccnc(C(F)(F)F)c3F)CC2)C1 [Compound 1, {1-{1-[3-Fluoro-2-(trifluoromethyl)isonicotinoyl]piperidin-4-yl}-3-[4-(7H-pyrrolo[2,3-d]pyrimidin-4-yl)-1H-pyrazol-1-yl]azetidin-3-yl}acetonitrile]
IC50 [3]: < 0.01 µM | JAK2/JAK1 [4]: >10 | GVHD score [5]: improvement in the GVHD score | clinical efficacy in acute GVHD ([6]; listed as itacitinib): demonstrated clinical efficacy; also recorded: significant clinical activity

N#CC[C@H](C1CCCC1)n1cc(-c2ncnc3[nH]ccc23)cn1 [ruxolitinib]
clinical efficacy in acute GVHD [6]: demonstrated clinical efficacy | clinical efficacy in chronic GVHD [7]: produced clinical efficacy | patients with FEV1 responses [8]: 4 out of 5 | increase in FEV1 ([9]; 1 patient): 9% | responses ([9]; 5 pediatric patients (4 evaluable)): 2 | decrease of the steroid requirement ([9]; final patient): > 50% | patients able to wean steroids completely ([9]; human, in vivo): Four out of five

C=CC[C@@H]1/C=C(\C)C[C@H](C)C[C@H](OC)[C@H]2O[C@@](O)(C(=O)C(=O)N3CCCC[C@H]3C(=O)O[C@H](/C(C)=C/[C@@H]3CC[C@@H](O)[C@H](OC)C3)[C@H](C)[C@@H](O)CC1=O)[C@H](C)C[C@@H]2OC [tacrolimus]
loss of predicted FEV1 [10]: decrease in the loss of predicted FEV1
